Test results reported in paper PMC10028261, “Structural and ligand binding analysis of the pet allergens Can f 1 and Fel d 7” (Frontiers in Allergy, 2023).

How the values were obtained:
Type in all cases: binding
Can f 1 [1] = molecular target: T1, Can f 1 (Canis lupus, UniProt O18873); test: ANS displacement assay; conditions: 2 uM ANS, 0.2 mg/ml protein, RT, 1 h; fatty acid 10 uM (Methods) or 1 uM (Figure 4 legend)
T1 construct: wild-type (C118S gene reverted to Cys118), signal peptide absent, borders aa 27-171 for the C118S crystal construct; 6His-GST tag cut with TEV; E. coli BL21(DE3)
T1 sequence (O18873 27-171): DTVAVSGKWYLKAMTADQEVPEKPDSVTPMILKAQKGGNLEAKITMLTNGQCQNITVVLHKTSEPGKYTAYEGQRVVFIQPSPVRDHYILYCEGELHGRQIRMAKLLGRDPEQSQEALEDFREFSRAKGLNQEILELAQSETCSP

Fel d 7 [2] = molecular target: T2, Fel d 7 (Felis catus, UniProt E5D2Z5); test: ANS displacement assay; conditions: 2 uM ANS, 0.2 mg/ml protein, RT, 1 h; fatty acid 10 uM (Methods) or 1 uM (Figure 4 legend)
T2 construct: wild-type, signal peptide absent, aa 27-170 for the crystal construct; GST tag cut with TEV; E. coli BL21(DE3)
T2 sequence (E5D2Z5 27-170): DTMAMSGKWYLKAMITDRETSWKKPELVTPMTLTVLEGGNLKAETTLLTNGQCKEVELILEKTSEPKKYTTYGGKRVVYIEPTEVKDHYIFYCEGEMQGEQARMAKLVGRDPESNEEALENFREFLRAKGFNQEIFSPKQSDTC

Can f 1 [3] = molecular target: T1, Can f 1; test: […]-methyl HSQC NMR stoichiometry; conditions: labelled compound (methyl-13C-oleate); annealed at 80°C, excess lipid removed, PBS; cholate extraction
Fel d 7 [4] = molecular target: T2, Fel d 7; test: […]-methyl HSQC NMR stoichiometry; conditions: labelled compound (methyl-13C-oleate); annealed at 80°C, excess lipid removed, PBS; cholate extraction

CC/C=C\C/C=C\C/C=C\CCCCCCCC(=O)N[C@@H](Cc1ccc(O)cc1)C(=O)O [A2, N-(α-Linolenoyl) tyrosine]
% fluorescence reduction (Can f 1 [1]): > 50%
% fluorescence reduction (Fel d 7 [2]): > 50%

CCCCCCCC/C=C\CCCCCCCC(=O)N[C@@H](CO)C(=O)O [A4, N-Oleoyl-L-serine]
% fluorescence reduction (Can f 1 [1]): > 50%
% fluorescence reduction (Fel d 7 [2]): > 50%

CCCCC/C=C\C/C=C\CCCCCCCC(=O)NCC(=O)O [D10, Linoleoyl glycine]
% fluorescence reduction (Can f 1 [1]): > 50%
% fluorescence reduction (Fel d 7 [2]): > 50%

CCCCCCCC/C=C\CCCCCCCC(=O)O [oleic acid]
stoichiometry (oleate:protein) (Can f 1 [3]): 2:1
stoichiometry (oleate:protein) (Fel d 7 [4]): 2:1
